{"source": "ChEMBL document CHEMBL4024706", "about": "(Eur J Med Chem, 2017)", "key": {"[1]": {"molecular_target": "Serine/threonine-protein kinase Nek6 (Homo sapiens) (UniProt Q9HC98)", "sequence (Q9HC98 whole entry, the tested form may be a part)": "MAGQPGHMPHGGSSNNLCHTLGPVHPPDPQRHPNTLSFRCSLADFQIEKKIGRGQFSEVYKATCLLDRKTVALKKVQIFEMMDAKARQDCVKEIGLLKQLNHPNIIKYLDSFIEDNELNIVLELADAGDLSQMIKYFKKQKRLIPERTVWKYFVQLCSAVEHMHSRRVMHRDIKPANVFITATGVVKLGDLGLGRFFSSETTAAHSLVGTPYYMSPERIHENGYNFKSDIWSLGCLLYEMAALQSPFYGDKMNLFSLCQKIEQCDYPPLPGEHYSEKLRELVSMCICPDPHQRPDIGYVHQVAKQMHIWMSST", "test": "Inhibition of wild-type human full length NEK6 (M8 to T313 residues) expressed in bacterial expression system assessed as residual activity at 1 uM by Kinomescan method relative to control"}, "[2]": {"molecular_target": "LIM domain kinase 1 (Homo sapiens) (UniProt P53667)", "test": "Inhibition of wild-type human full length LIMK1 (M1 to D647 residues) expressed in bacterial expression system assessed as residual activity at 1 uM by Kinomescan method relative to control"}, "[3]": {"molecular_target": "Serine/threonine-protein kinase ULK2 (Homo sapiens) (UniProt Q8IYT8)", "test": "Inhibition of wild-type human partial length ULK2 (M1 to S301 residues) expressed in mammalian expression system assessed as residual activity at 1 uM by Kinomescan method relative to control"}, "[4]": {"molecular_target": "Bone morphogenetic protein receptor type-1A (Homo sapiens) (UniProt P36894)", "test": "Inhibition of wild-type human partial length BMPR1A (Q214 to I532 residues) expressed in bacterial expression system assessed as residual activity at 1 uM by Kinomescan method relative to control"}, "[5]": {"test": "Growth inhibition of human M07e cells", "type": "functional", "conditions": "Homo sapiens, M-07e"}, "[6]": {"molecular_target": "Phosphatidylinositol 5-phosphate 4-kinase type-2 gamma (Homo sapiens) (UniProt Q8TBX8)", "test": "Inhibition of wild-type human partial length PIP5K2C (M1 to A421 residues) expressed in mammalian expression system assessed as residual activity at 1 uM by Kinomescan method relative to control"}, "[7]": {"molecular_target": "Tyrosine-protein kinase JAK2 (Homo sapiens) (UniProt O60674)", "sequence (O60674 whole entry, the tested form may be a part)": "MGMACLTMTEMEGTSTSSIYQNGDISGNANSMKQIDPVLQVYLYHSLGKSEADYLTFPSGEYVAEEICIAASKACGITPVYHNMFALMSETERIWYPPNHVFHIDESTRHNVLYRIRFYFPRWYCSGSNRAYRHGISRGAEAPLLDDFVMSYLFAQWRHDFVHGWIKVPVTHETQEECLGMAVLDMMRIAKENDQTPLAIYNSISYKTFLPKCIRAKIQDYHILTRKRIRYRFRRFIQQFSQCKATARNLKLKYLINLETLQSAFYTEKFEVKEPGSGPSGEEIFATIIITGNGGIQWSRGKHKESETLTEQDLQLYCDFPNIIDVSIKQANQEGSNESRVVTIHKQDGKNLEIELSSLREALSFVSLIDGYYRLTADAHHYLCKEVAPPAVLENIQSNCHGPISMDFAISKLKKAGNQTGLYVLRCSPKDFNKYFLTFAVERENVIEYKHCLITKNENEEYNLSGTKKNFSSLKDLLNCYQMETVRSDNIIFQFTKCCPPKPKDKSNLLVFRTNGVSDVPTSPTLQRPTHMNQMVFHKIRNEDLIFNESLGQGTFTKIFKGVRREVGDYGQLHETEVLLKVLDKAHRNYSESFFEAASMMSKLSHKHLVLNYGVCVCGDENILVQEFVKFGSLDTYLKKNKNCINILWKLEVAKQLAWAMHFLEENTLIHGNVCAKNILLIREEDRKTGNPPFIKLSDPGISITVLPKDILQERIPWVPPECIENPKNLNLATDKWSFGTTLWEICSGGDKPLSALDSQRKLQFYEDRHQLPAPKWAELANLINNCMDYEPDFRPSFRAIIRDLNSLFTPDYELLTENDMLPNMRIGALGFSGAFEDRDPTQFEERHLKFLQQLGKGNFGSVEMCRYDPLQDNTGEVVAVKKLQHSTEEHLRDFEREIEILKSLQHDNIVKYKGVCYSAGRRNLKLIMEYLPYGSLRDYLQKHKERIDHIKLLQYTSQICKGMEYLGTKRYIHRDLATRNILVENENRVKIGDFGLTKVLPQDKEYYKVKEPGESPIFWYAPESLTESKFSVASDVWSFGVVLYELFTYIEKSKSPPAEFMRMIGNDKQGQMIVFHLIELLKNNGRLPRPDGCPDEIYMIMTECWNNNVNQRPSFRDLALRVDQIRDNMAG", "test": "Inhibition of wild-type human partial length JAK2 JH1 catalytic domain (A829 to G1132 residues) expressed in mammalian expression system assessed as residual activity at 1 uM by Kinomescan method relative to control"}, "[8]": {"molecular_target": "Serine/threonine-protein kinase tousled-like 2 (Homo sapiens) (UniProt Q86UE8)", "test": "Inhibition of wild-type human partial length TLK2 (E424 to N749 residues) expressed in bacterial expression system assessed as residual activity at 1 uM by Kinomescan method relative to control"}, "[9]": {"molecular_target": "Dual specificity protein kinase CLK1 (Homo sapiens) (UniProt P49759)", "sequence (P49759 whole entry, looked up, the tested form may be a part)": "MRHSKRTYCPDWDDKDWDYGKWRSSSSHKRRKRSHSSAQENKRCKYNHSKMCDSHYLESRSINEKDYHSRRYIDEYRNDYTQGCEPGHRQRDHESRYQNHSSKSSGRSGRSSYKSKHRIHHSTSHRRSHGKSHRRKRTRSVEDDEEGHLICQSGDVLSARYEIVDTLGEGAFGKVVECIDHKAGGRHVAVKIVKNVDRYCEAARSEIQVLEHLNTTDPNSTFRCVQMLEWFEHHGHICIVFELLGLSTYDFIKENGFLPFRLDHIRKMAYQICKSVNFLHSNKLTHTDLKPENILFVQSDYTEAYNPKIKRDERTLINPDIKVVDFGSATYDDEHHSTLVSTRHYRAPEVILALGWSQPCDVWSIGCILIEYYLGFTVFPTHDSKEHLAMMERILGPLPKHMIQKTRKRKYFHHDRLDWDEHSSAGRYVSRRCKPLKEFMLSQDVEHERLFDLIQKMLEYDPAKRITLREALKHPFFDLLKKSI", "test": "Inhibition of wild-type human full length CLK1 (M1 to I484 residues) expressed in bacterial expression system assessed as residual activity at 1 uM by Kinomescan method relative to control"}, "Pfeiffer": {"test_system": "Pfeiffer", "test": "Induction of apoptosis in human Pfeiffer cells assessed as induction of caspase-3 cleavage after 48 hrs by immunoblot", "type": "functional, cell-based"}, "[10]": {"molecular_target": "Bone morphogenetic protein receptor type-2 (Homo sapiens) (UniProt Q13873)", "test": "Inhibition of wild-type human partial length BMPR2 (R179 to Q526 residues) expressed in mammalian expression system assessed as residual activity at 1 uM by Kinomescan method relative to control"}, "[11]": {"molecular_target": "Phosphatidylinositol 4,5-bisphosphate 3-kinase catalytic subunit alpha isoform (Homo sapiens) (UniProt P42336)", "test": "Inhibition of wild-type human partial length PIK3CA (R108 to N1068 residues) expressed in mammalian expression system assessed as residual activity at 1 uM by Kinomescan method relative to control"}, "[12]": {"molecular_target": "Serine/threonine-protein kinase Nek4 (Homo sapiens) (UniProt P51957)", "sequence (P51957 whole entry, looked up, the tested form may be a part)": "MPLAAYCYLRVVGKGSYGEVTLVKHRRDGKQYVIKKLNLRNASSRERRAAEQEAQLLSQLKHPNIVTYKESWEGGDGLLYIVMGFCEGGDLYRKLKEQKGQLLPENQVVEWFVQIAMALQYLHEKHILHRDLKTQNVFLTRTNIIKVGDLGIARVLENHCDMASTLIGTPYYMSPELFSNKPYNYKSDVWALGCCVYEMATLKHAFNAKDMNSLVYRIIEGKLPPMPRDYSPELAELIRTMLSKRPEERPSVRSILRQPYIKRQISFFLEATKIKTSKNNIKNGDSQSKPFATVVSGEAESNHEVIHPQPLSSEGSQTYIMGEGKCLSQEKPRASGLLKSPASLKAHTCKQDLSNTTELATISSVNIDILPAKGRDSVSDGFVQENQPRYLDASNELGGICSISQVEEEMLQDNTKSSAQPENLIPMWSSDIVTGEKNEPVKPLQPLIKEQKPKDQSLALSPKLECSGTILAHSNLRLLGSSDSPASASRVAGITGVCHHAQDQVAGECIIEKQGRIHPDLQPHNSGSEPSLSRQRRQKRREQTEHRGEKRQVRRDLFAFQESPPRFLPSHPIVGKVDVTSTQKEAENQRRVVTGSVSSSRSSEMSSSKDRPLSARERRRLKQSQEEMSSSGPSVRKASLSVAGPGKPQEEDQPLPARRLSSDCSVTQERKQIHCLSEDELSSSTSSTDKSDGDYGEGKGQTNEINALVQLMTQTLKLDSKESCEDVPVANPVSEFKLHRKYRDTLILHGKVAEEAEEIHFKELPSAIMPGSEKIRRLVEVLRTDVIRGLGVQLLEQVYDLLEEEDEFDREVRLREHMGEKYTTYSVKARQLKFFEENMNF", "test": "Inhibition of wild-type human full length NEK4 (M1 to F841 residues) expressed in mammalian expression system assessed as residual activity at 1 uM by Kinomescan method relative to control"}, "[13]": {"molecular_target": "Glycogen synthase kinase-3 alpha (Homo sapiens) (UniProt P49840)", "test": "Inhibition of wild-type human full length GSK3A (M1 to S483 residues) expressed in bacterial expression system assessed as residual activity at 1 uM by Kinomescan method relative to control"}, "Ramos": {"test_system": "Ramos", "test": "Growth inhibition of human Ramos cells", "type": "functional", "conditions": "Homo sapiens, Ramos"}, "[14]": {"molecular_target": "Serine/threonine-protein kinase/endoribonuclease IRE1 (Homo sapiens) (UniProt O75460)", "sequence (O75460 19-977 limits assumed)": "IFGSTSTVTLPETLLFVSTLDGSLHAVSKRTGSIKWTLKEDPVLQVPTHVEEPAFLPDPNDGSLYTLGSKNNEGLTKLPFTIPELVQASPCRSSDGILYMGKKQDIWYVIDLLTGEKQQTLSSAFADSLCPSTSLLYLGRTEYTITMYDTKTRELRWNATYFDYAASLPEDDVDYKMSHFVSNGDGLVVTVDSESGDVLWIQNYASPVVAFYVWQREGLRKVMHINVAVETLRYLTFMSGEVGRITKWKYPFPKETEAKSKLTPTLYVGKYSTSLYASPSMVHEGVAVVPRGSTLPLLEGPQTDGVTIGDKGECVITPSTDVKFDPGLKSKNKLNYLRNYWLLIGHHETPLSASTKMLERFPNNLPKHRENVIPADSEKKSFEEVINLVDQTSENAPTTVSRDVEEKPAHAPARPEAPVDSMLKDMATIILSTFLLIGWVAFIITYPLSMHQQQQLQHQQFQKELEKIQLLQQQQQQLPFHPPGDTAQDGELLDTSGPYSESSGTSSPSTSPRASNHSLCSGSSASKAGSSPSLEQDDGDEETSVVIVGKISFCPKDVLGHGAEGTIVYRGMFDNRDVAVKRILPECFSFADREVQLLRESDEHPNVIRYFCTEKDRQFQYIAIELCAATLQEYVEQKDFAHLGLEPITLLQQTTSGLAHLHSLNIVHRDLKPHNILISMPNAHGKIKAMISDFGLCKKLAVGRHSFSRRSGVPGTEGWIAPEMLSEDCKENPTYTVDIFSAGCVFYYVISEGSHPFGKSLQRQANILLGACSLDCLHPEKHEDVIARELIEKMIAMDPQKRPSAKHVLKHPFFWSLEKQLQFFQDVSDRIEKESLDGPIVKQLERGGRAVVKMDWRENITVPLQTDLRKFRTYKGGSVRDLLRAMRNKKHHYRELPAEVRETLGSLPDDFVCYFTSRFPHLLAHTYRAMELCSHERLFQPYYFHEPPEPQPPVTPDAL", "test": "Inhibition of wild-type human partial length ERN1 (S551 to E852 residues) expressed in mammalian expression system assessed as residual activity at 1 uM by Kinomescan method relative to control"}, "[15]": {"molecular_target": "Rhodopsin kinase GRK1 (Homo sapiens) (UniProt Q15835)", "test": "Inhibition of wild-type human full length GRK1 (M1 to S563 residues) expressed in mammalian expression system assessed as residual activity at 1 uM by Kinomescan method relative to control"}, "[16]": {"test_system": "Receptor-type tyrosine-protein kinase FLT3 (Homo sapiens), P36888 [R834Q]", "test": "Inhibition of human partial length FLT3 R834Q mutant (V592 to Y969 residues) expressed in mammalian expression system assessed as residual activity at 1 uM by Kinomescan method relative to control"}, "[17]": {"molecular_target": "Rhodopsin kinase GRK7 (Homo sapiens) (UniProt Q8WTQ7)", "test": "Inhibition of wild-type human full length GRK7 (M1 to L553 residues) expressed in mammalian expression system assessed as residual activity at 1 uM by Kinomescan method relative to control"}, "[18]": {"molecular_target": "Ribosomal protein S6 kinase alpha-6 (Homo sapiens) (UniProt Q9UK32)", "test": "Inhibition of wild-type human partial length N-terminal RSK4 kinase domain 1 (M1 to E397 residues) expressed in mammalian expression system assessed as residual activity at 1 uM by Kinomescan method relative to control"}, "[19]": {"molecular_target": "Tyrosine-protein kinase TXK (Homo sapiens) (UniProt P42681)", "test": "Inhibition of wild-type human partial length TXK (L238 to W527 residues) expressed in bacterial expression system assessed as residual activity at 1 uM by Kinomescan method relative to control"}, "SKM-1": {"test_system": "SKM-1", "test": "Growth inhibition of human SKM1 cells", "type": "functional", "conditions": "Homo sapiens, SKM-1"}, "[20]": {"test_system": "Serine/threonine-protein kinase B-raf (Homo sapiens), P15056 [V600E]", "sequence (P15056 whole entry V600E, the tested form may be a part)": "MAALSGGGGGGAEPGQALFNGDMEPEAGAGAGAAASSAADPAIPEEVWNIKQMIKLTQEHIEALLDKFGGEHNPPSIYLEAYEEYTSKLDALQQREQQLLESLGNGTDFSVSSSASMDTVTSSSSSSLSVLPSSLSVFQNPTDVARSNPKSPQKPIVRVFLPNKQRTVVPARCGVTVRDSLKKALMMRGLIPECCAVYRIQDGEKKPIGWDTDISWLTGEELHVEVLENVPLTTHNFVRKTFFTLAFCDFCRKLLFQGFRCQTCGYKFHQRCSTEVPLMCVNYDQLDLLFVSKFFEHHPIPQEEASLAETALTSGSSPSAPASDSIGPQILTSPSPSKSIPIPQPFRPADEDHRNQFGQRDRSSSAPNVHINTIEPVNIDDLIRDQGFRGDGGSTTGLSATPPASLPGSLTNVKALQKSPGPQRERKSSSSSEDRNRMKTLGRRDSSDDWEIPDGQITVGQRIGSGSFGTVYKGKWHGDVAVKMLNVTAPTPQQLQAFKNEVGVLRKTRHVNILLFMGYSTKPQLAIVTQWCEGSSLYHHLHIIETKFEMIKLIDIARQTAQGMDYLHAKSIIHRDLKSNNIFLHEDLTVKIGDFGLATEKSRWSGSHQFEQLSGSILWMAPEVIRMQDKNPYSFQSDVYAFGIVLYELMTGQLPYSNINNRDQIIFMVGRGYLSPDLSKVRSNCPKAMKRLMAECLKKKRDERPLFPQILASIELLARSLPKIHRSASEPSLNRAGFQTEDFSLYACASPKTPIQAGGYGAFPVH", "test": "Inhibition of human partial length BRAF V600E mutant (S429 to E741 residues) expressed in mammalian expression system assessed as residual activity at 1 uM by Kinomescan method relative to control"}, "[21]": {"molecular_target": "Tyrosine-protein kinase Fer (Homo sapiens) (UniProt P16591)", "test": "Inhibition of wild-type human partial length FER (S542 to T822 residues) expressed in bacterial expression system assessed as residual activity at 1 uM by Kinomescan method relative to control"}, "[22]": {"molecular_target": "Calcium/calmodulin-dependent protein kinase kinase 1 (Homo sapiens) (UniProt Q8N5S9)", "sequence (Q8N5S9 whole entry, looked up, the tested form may be a part)": "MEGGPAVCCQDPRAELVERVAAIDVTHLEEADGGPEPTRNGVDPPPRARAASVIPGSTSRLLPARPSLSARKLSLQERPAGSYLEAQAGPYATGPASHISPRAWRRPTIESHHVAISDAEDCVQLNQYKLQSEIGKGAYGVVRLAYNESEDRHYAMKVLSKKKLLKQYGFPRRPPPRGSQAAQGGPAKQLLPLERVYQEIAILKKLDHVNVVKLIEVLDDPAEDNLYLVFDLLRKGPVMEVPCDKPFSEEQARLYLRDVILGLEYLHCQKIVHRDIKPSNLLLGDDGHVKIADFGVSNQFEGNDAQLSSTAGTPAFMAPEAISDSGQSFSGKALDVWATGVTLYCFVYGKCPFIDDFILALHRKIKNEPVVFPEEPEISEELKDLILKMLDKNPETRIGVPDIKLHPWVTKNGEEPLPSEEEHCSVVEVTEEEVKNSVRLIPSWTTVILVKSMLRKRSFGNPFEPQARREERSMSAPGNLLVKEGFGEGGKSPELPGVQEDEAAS", "test": "Inhibition of wild-type human partial length CAMKK1 (R65 to E414 residues) expressed in bacterial expression system assessed as residual activity at 1 uM by Kinomescan method relative to control"}, "[23]": {"molecular_target": "Rho-associated protein kinase 2 (Homo sapiens) (UniProt O75116)", "test": "Inhibition of wild-type human partial length ROCK2 (M1 to T431 residues) expressed in mammalian expression system assessed as residual activity at 1 uM by Kinomescan method relative to control"}, "[24]": {"molecular_target": "Dual specificity mitogen-activated protein kinase kinase 3 (Homo sapiens) (UniProt P46734)", "test": "Inhibition of wild-type human full length MEK3 (M1 to S318 residues) expressed in mammalian expression system assessed as residual activity at 1 uM by Kinomescan method relative to control"}}, "data": [{"compound": "C=CC(=O)Nc1cc(Nc2cc(-c3cccc(NC(=O)c4ccc(C(C)(C)C)cc4)c3C)cn(C)c2=O)ccc1C(=O)N1CCOCC1", "values": [{"measurement": "Activity", "setting": "[1]", "result": 98, "unit": "%"}, {"measurement": "Activity", "setting": "[2]", "result": 86, "unit": "%"}, {"measurement": "Activity", "setting": "[3]", "result": 80, "unit": "%"}, {"measurement": "Activity", "setting": "[4]", "result": 98, "unit": "%"}, {"measurement": "GI50", "setting": "[5]", "result": 7.3, "unit": "µM"}, {"measurement": "Activity", "setting": "[6]", "result": 97, "unit": "%"}, {"measurement": "Activity", "setting": "[7]", "result": 73, "unit": "%"}, {"measurement": "Activity", "setting": "[8]", "result": 100, "unit": "%"}, {"measurement": "Activity", "setting": "[9]", "result": 97, "unit": "%"}, {"measurement": "Activity", "setting": "Pfeiffer", "result": "Dose-dependent effect"}, {"measurement": "Activity", "setting": "[10]", "result": 93, "unit": "%"}, {"measurement": "Activity", "setting": "[11]", "result": 100, "unit": "%"}, {"measurement": "Activity", "setting": "[12]", "result": 100, "unit": "%"}, {"measurement": "Activity", "setting": "[13]", "result": 100, "unit": "%"}, {"measurement": "GI50", "setting": "Ramos", "result": 3.5, "unit": "µM"}, {"measurement": "Activity", "setting": "[14]", "result": 100, "unit": "%"}, {"measurement": "Activity", "setting": "[15]", "result": 100, "unit": "%"}, {"measurement": "Activity", "setting": "[16]", "result": 91, "unit": "%"}, {"measurement": "Activity", "setting": "[17]", "result": 94, "unit": "%"}, {"measurement": "Activity", "setting": "[18]", "result": 90, "unit": "%"}, {"measurement": "Activity", "setting": "[19]", "result": 100, "unit": "%"}, {"measurement": "GI50", "setting": "SKM-1", "result": 7.1, "unit": "µM"}, {"measurement": "Activity", "setting": "[20]", "result": 100, "unit": "%"}, {"measurement": "Activity", "setting": "[21]", "result": 99, "unit": "%"}, {"measurement": "Activity", "setting": "[22]", "result": 100, "unit": "%"}, {"measurement": "Activity", "setting": "[23]", "result": 92, "unit": "%"}, {"measurement": "Activity", "setting": "[24]", "result": 100, "unit": "%"}]}]}
